Measured values taken from the supplement of paper PMC10307832.

Columns and labels:
Assay in all cases: relative viability (nuclei count vs DMSO), 5 days (fraction); higher = more cells survive
[1] = compound: CC1=CC(=NN1)NC2=CC(=NC(=N2)/C=C/C3=CC=CC=C3)N4CCN(CC4)C + CC(C)C[C@H](NC(=O)[C@H](Cc1ccccc1)NC(=O)c1cnccn1)B(O)O [Bortezomib] (partner 0.002 µM)
Procedure, shortened: (§1)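 Values are medians from duplicate plates. Each reflects relative viability, defined as the nuclei count of treated wells over that of vehicle wells. Lung cancer cell lines in 1536-well plates were pin-tool dosed one day after seeding with one drug alone or with a fixed anchor-drug dose plus five library-drug doses (not always all listed) in √10 steps, then fixed, stained and imaged at 4× after 5 days.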

Obatoclax + Palbociclib = compound: COC1=CC(c2cc3ccccc3[nH]2)=N/C1=C\c1[nH]c(C)cc1C [Obatoclax] + CC(=O)c1c(C)c2cnc(Nc3ccc(N4CCNCC4)cn3)nc2n(C2CCCC2)c1=O [Palbociclib] (partner 0.5 µM)
Procedure, shortened: as §1

Bortezomib + Trametinib = compound: CC(C)C[C@H](NC(=O)[C@H](Cc1ccccc1)NC(=O)c1cnccn1)B(O)O [Bortezomib] + CC(=O)Nc1cccc(-n2c(=O)n(C3CC3)c(=O)c3c(Nc4ccc(I)cc4F)n(C)c(=O)c(C)c32)c1 [Trametinib] (partner 0.02 µM)
Procedure, shortened: as §1

[2] = compound: CC1=CC(=NN1)NC2=CC(=NC(=N2)/C=C/C3=CC=CC=C3)N4CCN(CC4)C + Cc1nc(NC(=O)N2CCC[C@H]2C(N)=O)sc1-c1ccnc(C(C)(C)C(F)(F)F)c1 [Alpelisib] (partner 2 µM)
Procedure, shortened: as §1

NCI-H650
relative viability ([1]; first compound 0.08 µM): 0.839
relative viability ([1]; first compound 0.253 µM): 1.01
relative viability ([1]; first compound 0.8 µM): 0.673
relative viability ([1]; first compound 2.53 µM): 0.364
relative viability ([1]; first compound 8 µM): 0.187
relative viability (Obatoclax + Palbociclib; first compound 0.01 µM): 0.319
relative viability (Obatoclax + Palbociclib; first compound 0.03162 µM): 0.352
relative viability (Obatoclax + Palbociclib; first compound 0.3162 µM): 0.178
relative viability (Obatoclax + Palbociclib; first compound 1 µM): 0.184
relative viability (Bortezomib + Trametinib; first compound 0.0002 µM): 0.936
relative viability (Bortezomib + Trametinib; first compound 0.000632 µM): 1.1
relative viability (Bortezomib + Trametinib; first compound 0.002 µM): 0.857
relative viability (Bortezomib + Trametinib; first compound 0.006325 µM): 0.361
relative viability (Bortezomib + Trametinib; first compound 0.02 µM): 0.146
relative viability ([2]; first compound 0.08 µM): 1.12
relative viability ([2]; first compound 0.253 µM): 1.19
relative viability ([2]; first compound 0.8 µM): 1.03
relative viability ([2]; first compound 2.53 µM): 0.811
relative viability ([2]; first compound 8 µM): 0.171
